Data reported in PMC11645656, “MRGPRX4 mediates phospho-drug associated pruritus in a humanized mouse model” (Science translational medicine, 2024).
Where “and” joins values, the source holds several entries; their conditions need not be identical. Equal entries are not always repeated.

How the values were obtained:
NP2-WT DRG neurons = assay: GCaMP6s calcium imaging of cultured NP2-WT DRG neurons; type: cell-based, mouse; conditions: 10 μM phospho-drugs; 1 mM CQ
From the text: Fig. 2. Phosphate monoester prodrugs induce itch in NP2-MRGPRX4+ mice through activating NP2 primary sensory neurons. (A) Mating strategy to generate NP2-X4+ mice. (B) In situ hybridization showing MRGPRX4 transcripts (magenta) in NP2-X4+ DRG as indicated by arrowheads (left) but not in littermate control NP2-WT (right). NP2 subpopulation accounts for 5% of total DRG neurons. DAPI, blue. Scale bar, 50 μm. […]. Data are expressed as mean ± SEM. *p< 0.05, **p< 0.01 and ***p< 0.001 by two-tailed unpaired Student’s t-test. ns = no statistical significance observed. (D and E) Traces of average (top, depicted as mean ± 95% confidence interval) and individual (bottom, reflected by the heatmap) calcium activity, measured by fluorescence intensity normalized to the baseline intensity (FT/F0) over time of NP2-X4+ (D) and NP2-WT (E) DRG neurons labelled with GCaMP6s (n = 110–150 neurons pooled from 3–7 independent culture vessels from 2–4 mice in each condition). 10 μM phospho-drugs and 1 mM CQ were added as indicated by the arrowheads. […]
Calcium imaging data was collected with a Nikon Eclipse TE 200 microscope. Time series GCaMP6 fluorescence intensity was acquired through the FITC/GFP channel. […] Neurons with GCaMP6 signal rose above 50% of the baseline intensity after compound application were counted as positive responders and the percentage of responding neurons was calculated. […]

NP2-X4+ DRG neurons = assay: GCaMP6s calcium imaging of cultured NP2-X4+ DRG neurons; type: cell-based, mouse; conditions: 10 μM phospho-drugs; 1 mM CQ
From the text: Fig. 2. Phosphate monoester prodrugs induce itch in NP2-MRGPRX4+ mice through activating NP2 primary sensory neurons. (A) Mating strategy to generate NP2-X4+ mice. (B) In situ hybridization showing MRGPRX4 transcripts (magenta) in NP2-X4+ DRG as indicated by arrowheads (left) but not in littermate control NP2-WT (right). NP2 subpopulation accounts for 5% of total DRG neurons. DAPI, blue. Scale bar, 50 μm. […]. Data are expressed as mean ± SEM. *p< 0.05, **p< 0.01 and ***p< 0.001 by two-tailed unpaired Student’s t-test. ns = no statistical significance observed. (D and E) Traces of average (top, depicted as mean ± 95% confidence interval) and individual (bottom, reflected by the heatmap) calcium activity, measured by fluorescence intensity normalized to the baseline intensity (FT/F0) over time of NP2-X4+ (D) and NP2-WT (E) DRG neurons labelled with GCaMP6s (n = 110–150 neurons pooled from 3–7 independent culture vessels from 2–4 mice in each condition). 10 μM phospho-drugs and 1 mM CQ were added as indicated by the arrowheads. Neurons with FT/F0 > 1.5 after compound application were considered a positive responder. NP2-X4+: NP2-MRGPRX4+; DRG, dorsal root ganglia; CQ: chloroquine.
The procedures were performed following previously established protocols ([15]). Murine DRGs (from both male and female) were harvested from all spinal segments and digested in dispase (5 mg/ml) / type I collagenase (1 mg/ml) enzyme mix at 37 °C for an hour. Enzyme mix was replaced with complete DH10 media (90% DMEM/F12, 10% FBS, penicillin (100 units/ml), and streptomycin (100 μg/ml)) and gently triturated with 1 ml pipette tip until the media turned cloudy without visible tissue chunks. Dissociated tissues were filtered through a 70 μm filter and spun down 1250 rpm for 5 min at RT. Supernatant was removed and the cell pellet was resuspended in complete DH10 media. Cell suspension was then added on top of poly-D-lysine- and laminin-coated coverslips and sat for 1–2 h at 37°C. Complete DH10 media supplemented with NGF (50 ng/ml) was then added into the vessel. Neurons were allowed to recover overnight at 37°C for the next-day calcium imaging experiment.
Calcium imaging data was collected with a Nikon Eclipse TE 200 microscope. Time series GCaMP6 fluorescence intensity was acquired through the FITC/GFP channel. Before the imaging, cultured neurons were washed and equilibrated in CIB for 30 min at 37°C. In each trial, compounds (as indicated in the results) were added into the imaging chamber after a 30 s baseline GCaMP6 activity was collected. […] Neurons with GCaMP6 signal rose above 50% of the baseline intensity after compound application were counted as positive responders and the percentage of responding neurons was calculated. […]

[1] = vs dexamethasone; cited from earlier work
[2] = system: NP2-X4+ mice (MRGPRX4 in Mrgpra3+ NP2 sensory neurons); assay: Itch behavioral study (scratching bouts after subcutaneous nape injection) in NP2-X4+ mice; type: in vivo, mouse; conditions: NP2-X4+; 30 min after injection of 50 μl 10 mM into the nape; each cell one mouse
WT mice = assay: Itch behavioral study in WT mice across concentrations (fig. S4)
Procedure: Experimenters and subjects scoring the recorded videos were both blind to the mouse genotype and tested compounds. Behavioral tests comparing NP2-WT and NP2-X4+ scratching behavior were 6–12weeks old littermates including both genders. In brief, on the day preceding the experiment, animals were acclimated to the test chamber for at least 30 min and the experimenters performed mock injections 1–2 times in between. On the day of experiments, animals were habituated in test chambers for 10 min before receiving subcutaneous injection of 50ul compounds. Videos were recorded for 30 min after the injection. A bout of scratching was defined as a sustained scratching movement initiated by hindpaws toward the injection site (until the pause of the movement / withdrawal of the hindpaw). Scratching bouts were quantified within the 30 min record sessions.

HTLA cells = assay: PRESTO-Tango β-arrestin recruitment assay, parental HTLA cells without MRGPRX4 (control, fig. S1); type: cell-based
From the text: Supplement NIHMS2038790-supplement-table.xlsx, sheet "fig. S1" | column: Concentration (M)

NP2-WT mice = assay: Itch behavioral study (scratching bouts after subcutaneous nape injection) in littermate control NP2-WT mice; type: in vivo; conditions: 30 min after injection of 50 μl 10 mM into the nape, each cell one mouse
From the text: Fig. 2. Phosphate monoester prodrugs induce itch in NP2-MRGPRX4+ mice through activating NP2 primary sensory neurons. (A) Mating strategy to generate NP2-X4+ mice. (B) In situ hybridization showing MRGPRX4 transcripts (magenta) in NP2-X4+ DRG as indicated by arrowheads (left) but not in littermate control NP2-WT (right). NP2 subpopulation accounts for 5% of total DRG neurons. DAPI, blue. Scale bar, 50 μm. […] . Data are expressed as mean ± SEM. *p< 0.05, **p< 0.01 and ***p< 0.001 by two-tailed unpaired Student’s t-test. ns = no statistical significance observed. (D and E) Traces of average (top, depicted as mean ± 95% confidence interval) and individual (bottom, reflected by the heatmap) calcium activity, measured by fluorescence intensity normalized to the baseline intensity (FT/F0) over time of NP2-X4+ (D) and NP2-WT (E) DRG neurons labelled with GCaMP6s (n = 110–150 neurons pooled from 3–7 independent culture vessels from 2–4 mice in each condition). 10 μM phospho-drugs and 1 mM CQ were added as indicated by the arrowheads. Neurons with FT/F0 > 1.5 after compound application were considered a positive responder. NP2-X4+: NP2-MRGPRX4+; DRG, dorsal root ganglia; CQ: chloroquine.
. All the animals used were heterozygous unless otherwise specified. NP2-X4+ and NP2-WT littermates were generated by crossing Mrgpra3-Cre to Rosa26-lsl-MRGPRX4 as detailed previously ([15]). NP2-X4+ mice were further crossed to homozygous Rosa26-lsl-GCaMP6s to obtain NP2-WT/GCaMP6s and NP2-X4+/GCaMP6s animals. A detailed mating strategy is illustrated in fig. S5. Pirt-Cre-GCaMP6s animals were acquired by crossing Pirt-Cre to homozygous Rosa26-lsl-GCaMP6s. Pirt-Cre animals were generated through homologous recombination as indicated previously ([37]). Rosa26-lsl-GCaMP6s mouse line was provided by Dr. Dwight Bergles’ lab at the Johns Hopkins School of Medicine.

Row | Compound | Calcium response of NP2-WT neurons (NP2-WT DRG neurons) | Calcium response of NP2-X4+ neurons (NP2-X4+ DRG neurons) | Enhancement of aqueous solubility [1] | Scratching bouts of individual animals [2] | Scratching bouts (each well represents individual mouse) (WT mice; 1 mM subcutaneous nape injection) | Scratching bouts (each well represents individual mouse) (WT mice; 10 mM subcutaneous nape injection) | PRESTO-Tango response (fig. S1), single replicate (HTLA cells; concentration 4.88e-7 M) | PRESTO-Tango response (fig. S1), single replicate (HTLA cells; concentration 9.77e-7 M) | PRESTO-Tango response (fig. S1), single replicate (HTLA cells; concentration 1.95e-6 M) | PRESTO-Tango response (fig. S1), single replicate (HTLA cells; concentration 3.91e-6 M) | PRESTO-Tango response (fig. S1), single replicate (HTLA cells; concentration 7.81e-6 M) | PRESTO-Tango response (fig. S1), single replicate (HTLA cells; concentration 1.56e-5 M) | PRESTO-Tango response (fig. S1), single replicate (HTLA cells; concentration 3.13e-5 M) | PRESTO-Tango response (fig. S1), single replicate (HTLA cells; concentration 6.25e-5 M) | PRESTO-Tango response (fig. S1), single replicate (HTLA cells; concentration 0.00025 M) | PRESTO-Tango response (fig. S1), single replicate (HTLA cells; concentration 0.0005 M) | Scratching bouts of individual animals (NP2-WT mice)
1 | CCN(CC)CCCC(C)Nc1ccnc2cc(Cl)ccc12 (stereo not drawn) [Chloroquine] | responded | responded |  |  |  |  |  |  |  |  |  |  |  |  |  |  | 
2 | C[C@@H]1C[C@H]2[C@@H]3CCC4=CC(=O)C=C[C@]4(C)[C@@]3(F)[C@@H](O)C[C@]2(C)[C@@]1(O)C(=O)COP(=O)(O)O [Dexamethasone phosphate] |  | strong calcium transients | more than 500 fold | 19 and 29 and 40 and 22 and 17 and 35 and 2 and 71 and 63 and 41 | 5 and 12 and 10 and 47 | 2 and 30 and 18 and 13 | 0.002254 and 0.004793 and 0.008408 and 0.006888 and 0.003935 and 0.001659 | 0.004343 and 0.01198 and 0.02598 and 0.007642 and 0.02244 and 0.00537 | 0.003939 and 0.005577 and 0.007884 and 0.006351 and 0.008709 and 0.001173 | 0.006644 and 0.008139 and 0.007744 and 0.01012 and 0.008517 and 0.007795 | 0.008709 and 0.01255 and 0.009916 and 0.01429 and 0.003964 and 0.009591 | 0.01013 and 0.0155 and 0.008817 and 0.01021 and 0.0162 and 0.001357 | 0.01293 and 0.02454 and 0.01076 and 0.01089 and 0.02171 and 0.002693 | 0.01139 and 0.03821 and 0.01576 and 0.0127 and 0.01288 and 0.03538 | 0.01585 and 0.06272 and 0.01054 and 0.02134 and 0.01844 and 0.04104 | 0.01737 and 0.05973 and 0.009456 and 0.02137 and 0.0304 and 0.02084 | 4 and 14 and 5 (2×) and 8 and 3 (2×) and 18 and 12 and 42
